Source: patent publication US20040231558A1, “Water-color ink” (priority 2001, published 2004)

Key:
Format in all cases: physicochemical
[1] = Evaluation of light fastness-1 (OD value of printed portion after 100 hours xenon fadeometer); conditions: for (A)-1 light fastness-1: ink prepared as in Example 1 from the salt named in the row, OD value of printed portion after 100 hours xenon fadeometer
Experimental: (§1) The prepared ink was filled in an ink cartridge for a piezo-type ink-jet printer EM-930C (manufactured by Seiko Epson). The printing was performed with this printer, and the light fastness was evaluated. Further, the storage stability of the ink was evaluated.
(A)-1 Evaluation of Light Fastness-1
Printing density (OD value) was measured after irradiating a printed portion with light for 100 hours using a xenon fadeometer (manufactured by Suga Shikenki) to evaluate the light fastness.

[2] = Evaluation of light fastness-2 (OD value of printed portion after 400 hours xenon fadeometer); conditions: ink prepared as in Example 1 from the salt named in the row; OD value of printed portion after 400 hours xenon fadeometer
Experimental: as §1
(A)-2 Evaluation of Light Fastness-2
Printing density (OD value) was measured after irradiating a printed-portion with light for 400 hours using axenon fadeometer (manufactured by Suga Shikenki), and the light fastness was evaluated.

[3] = Evaluation of storage stability of ink (40° C. for 3 months, insoluble matter and clogging); conditions: recording liquid stored at 40° C. for 3 months; insoluble matter and clogging
Experimental: as §1
(C) Evaluation of Storage Stability of Ink:
After a recording liquid was stored at 40° C. for 3 months, it was observedwhether or not an insoluble matterwas precipitated, and whether or not clogging occurred after continuous recording with the foregoing printer for a long period of time.

[4] = Evaluation of moisture resistance (image-recorded paper at 40° C. and humidity 85%, visual observation); conditions: for (B) moisture resistance: image-recorded paper at 40° C. and humidity 85%, visually observed
[5] = ink prepared as in Example 1, for comparative inks in comparison to the ink of the invention

Row | SMILES | (A)-1 light fastness-1 [1] | (A)-2 light fastness-2 [2] | (C) storage stability [3] | (B) moisture resistance [4] | light fastness (in words) [1, 5] | moisture resistance (in words) [4, 5]
1 | N#Cc1c(-c2ccccc2)c(N=Nc2cc(C(=O)O)ccc2C(=O)O)c(O)n(CCCCCCNC(=O)c2cc(C(=O)O)c(C(=O)NCCCCCCn3c(O)c(N=Nc4cc(C(=O)O)ccc4C(=O)O)c(-c4ccccc4)c(C#N)c3=O)cc2C(=O)O)c1=O [Compound 287] | ⊚ | ⊚ | ◯ | ⊚ | – | –
2 | Cc1c(N=Nc2cc(C(=O)O)ccc2C(=O)O)c(O)n(CCO)c(=O)c1C#N [compound 37] | ⊚ | ⊚ and Δ | ◯ and Δ | ◯ | – | –
3 | Cc1c(N=Nc2cc(C(=O)O)ccc2C(=O)O)c(O)n(Cc2ccc(C(=O)O)c(C(=O)O)c2)c(=O)c1C#N [compound 92] | ⊚ | ⊚⊚ | ◯ | ⊚ | – | –
4 | Cc1c(N=Nc2cccc(C(=O)O)c2C(=O)O)c(O)n(C(C(=O)O)C(=O)O)c(=O)c1C#N [compound 52] | ⊚ | ⊚ and Δ | ◯ and Δ | Δ and ◯ | – | –
5 | N#Cc1c(C(F)(F)F)c(N=Nc2cc(C(=O)O)ccc2C(=O)O)c(O)n(CCNc2nc(NCCn3c(O)c(N=Nc4cc(C(=O)O)ccc4C(=O)O)c(C(F)(F)F)c(C#N)c3=O)nc(NCCn3c(O)c(N=Nc4cc(C(=O)O)ccc4C(=O)O)c(C(F)(F)F)c(C#N)c3=O)n2)c1=O [Compound 265] | ⊚ | ⊚ | Δ | ⊚ | – | –
6 | Cc1c(N=Nc2ccccc2C(=O)O)c(O)n(CCNC(=O)c2cc(C(=O)O)c(C(=O)NCCn3c(O)c(N=Nc4ccccc4C(=O)O)c(C)c(C#N)c3=O)cc2C(=O)O)c(=O)c1C#N [Compound 323] | ⊚ | ⊚ | Δ | ⊚ | – | –
7 | Cc1c(N=Nc2c(C(=O)O)cccc2C(=O)O)c(O)n(CCC(=O)O)c(=O)c1C#N [compound 95] | ⊚ | ⊚ and Δ | ◯ and Δ | Δ and ◯ | – | –
8 | Cc1c(N=Nc2cccc(C(=O)O)c2C(=O)O)c(O)n(CCNC(=O)c2cc(C(=O)O)c(C(=O)NCCn3c(O)c(N=Nc4cccc(C(=O)O)c4C(=O)O)c(C)c(C#N)c3=O)cc2C(=O)O)c(=O)c1C#N [Compound 293] | ⊚ | ⊚⊚ | ◯ | ⊚ | – | –
9 | Cc1c(N=Nc2cc(C(=O)O)ccc2C(=O)O)c(O)n(CCCCCCNC(=O)c2cc(C(=O)NCCCCCCn3c(O)c(N=Nc4cc(C(=O)O)ccc4C(=O)O)c(C)c(C#N)c3=O)c(C(=O)NCCn3c(O)c(N=Nc4cc(C(=O)O)ccc4C(=O)O)c(C)c(C#N)c3=O)cc2C(=O)NCCCCCCn2c(O)c(N=Nc3cc(C(=O)O)ccc3C(=O)O)c(C)c(C#N)c2=O)c(=O)c1C#N [Compound 312] | ⊚ | ⊚ | Δ | ⊚ | – | –
10 | O=C(O)c1nn(-c2ccc(S(=O)(=O)O)cc2)c(O)c1N=Nc1ccc(S(=O)(=O)O)cc1 [C. I. Acid Yellow 23, reference compound] | – | – | ◯ | – | poor | poor

More lines, now with the values ahead:

Row | (A)-1 light fastness-1 [1] | (A)-2 light fastness-2 [2] | (C) storage stability [3] | (B) moisture resistance [4] | light fastness (in words) [1, 5] | moisture resistance (in words) [4, 5] | SMILES
11 | ⊚ | ◯ | Δ | ⊚ | – | – | Cc1c(N=Nc2cc(C(=O)O)ccc2C(=O)O)c(O)n(CCCCCCNc2nc(Cl)nc(NCCn3c(O)c(N=Nc4cc(C(=O)O)ccc4C(=O)O)c(C)c(C#N)c3=O)n2)c(=O)c1C#N [Compound 249]
12 | ⊚ | ⊚⊚ | ◯ | ⊚ | – | – | CCCCc1c(N=Nc2cc(C(=O)O)ccc2C(=O)O)c(O)n(CCNC(=O)c2cc(C(=O)O)c(C(=O)NCCn3c(O)c(N=Nc4cc(C(=O)O)ccc4C(=O)O)c(CCCC)c(C#N)c3=O)cc2C(=O)O)c(=O)c1C#N [Compound 284]
13 | ⊚ | ◯ | Δ | ⊚ | – | – | Cc1c(N=Nc2cc(C(=O)O)ccc2C(=O)O)c(O)n(CCNc2nc(Cl)nc(NCCn3c(O)c(N=Nc4cc(C(=O)O)ccc4C(=O)O)c(C)c(C(N)=O)c3=O)n2)c(=O)c1C(N)=O [Compound 252]
14 | ⊚ | ◯ | Δ | ⊚ | – | – | Cc1c(N=Nc2cccc(C(=O)O)c2C(=O)O)c(O)n(CCCNc2nc(Cl)nc(NCCCn3c(O)c(N=Nc4cccc(C(=O)O)c4C(=O)O)c(C)c(C#N)c3=O)n2)c(=O)c1C#N [Compound 260]
15 | ⊚ | ◯ | Δ | ⊚ | – | – | Cc1c(N=Nc2cc(C(=O)O)ccc2C(=O)O)c(O)n(CCNc2nc(NCCn3c(O)c(N=Nc4cc(C(=O)O)ccc4C(=O)O)c(C)c(C#N)c3=O)nc(SCCC(=O)O)n2)c(=O)c1C#N [Compound 321]
16 | ⊚ | ⊚ | Δ | ⊚ | – | – | N#Cc1c(C(F)(F)F)c(N=Nc2cc(C(=O)O)ccc2C(=O)O)c(O)n(CCNc2nc(Cl)nc(NCCn3c(O)c(N=Nc4cc(C(=O)O)ccc4C(=O)O)c(C(F)(F)F)c(C#N)c3=O)n2)c1=O [Compound 248]
17 | ⊚ | ◯ | ◯ | ⊚ | – | – | CCOC(=O)Cc1c(N=Nc2cc(C(=O)O)ccc2C(=O)O)c(O)n(CCNc2nc(Cl)nc(NCCn3c(O)c(N=Nc4cc(C(=O)O)ccc4C(=O)O)c(CC(=O)OCC)c(C#N)c3=O)n2)c(=O)c1C#N [Compound 255]
18 | ⊚ | ◯ | Δ | ⊚ | – | – | Cc1c(N=Nc2cc(C(=O)O)ccc2C(=O)O)c(O)n(CCCNc2nc(NCCn3c(O)c(N=Nc4cc(C(=O)O)ccc4C(=O)O)c(C)c(C#N)c3=O)nc(NCCn3c(O)c(N=Nc4c(C(=O)O)cccc4C(=O)O)c(C)c(C#N)c3=O)n2)c(=O)c1C#N [Compound 274]
